Reference: paper PMC9535710 (ACS Omega, 2022)

Key:
[1] = SRB cytotoxicity, K562 leukemia cells; type: cell-based, human; settings: human, K562 leukemia cells
[2] = SRB cytotoxicity, U251 glioblastoma cells; type: cell-based, human; settings: human, U251 glioblastoma cells
[3] = SRB cytotoxicity, HCT-15 colon cells; type: cell-based, human; settings: human, HCT-15 colon tumor cells
[4] = SRB cytotoxicity, SKLU-1 lung cells; type: cell-based, human; settings: human, SKLU-1 lung tumor cells
[5] = SRB cytotoxicity, MCF-7 breast cells; type: cell-based; settings: human, MCF-7 breast tumor cells
[6] = SRB cytotoxicity, PC-3 prostate cells; type: cell-based; settings: human, PC-3 prostate tumor cells
[7] = system: K562 (leukemia); assay: SRB cytotoxicity, K562 leukemia cells; type: cell-based, human; settings: Homo sapiens, K562, read-out: IC50 K562
[8] = system: U251 (glioblastoma); assay: SRB cytotoxicity, U251 glioblastoma cells; type: cell-based, human; settings: Homo sapiens, U-251, read-out: IC50 U251
[9] = system: HCT-15 (colon); assay: SRB cytotoxicity, HCT-15 colon cells; type: cell-based, human; settings: Homo sapiens, HCT-15, read-out: IC50 HCT-15
[10] = system: SKLU-1 (lung); assay: SRB cytotoxicity, SKLU-1 lung cells; type: cell-based, human; settings: Homo sapiens, SK-LU-1, read-out: IC50 SKLU-1

In the case of C=C(C)[C@@H]1CC[C@]2(C)CC[C@]3(C)[C@H](CC[C@@H]4[C@@]5(C)CC[C@H](O)C(C)(C)[C@@H]5CC[C@]43C)[C@@H]12 [lupeol (5), lupeol], the inhibition at 50 μM [1] is reported as 48.8%, the inhibition at 50 μM [2] is reported as 27.3% and the inhibition at 50 μM [3] is reported as 10.4%. It also gave an inhibition at 50 μM [4] of 13%, an inhibition at 50 μM [5] of 22.3% and an inhibition at 50 μM [6] of 50.7%.

In the case of CC(C)=CCC[C@@H](C)[C@@H]1CC[C@]2(C)C3=C(CC[C@@]12C)[C@@]1(C)CC[C@H](O)C(C)(C)[C@@H]1CC3 [euphol (2), eupha-8,24-dien-3β-ol], the inhibition at 50 μM [1] is reported as 26.9%, the inhibition at 50 μM [3] is reported as 2.18% and the inhibition at 50 μM [4] is reported as 4.9%. The inhibition at 50 μM [5] was 36.6%.

In the case of COc1cc([C@@H]2c3cc4c(cc3[C@@H](O[C@@H]3O[C@@H]5CO[C@@H](C)O[C@H]5[C@H](O)[C@H]3O)[C@H]3COC(=O)[C@H]23)OCO4)cc(OC)c1O [etoposide, reference compound], the IC50 [7] is reported as 2200 ± 700 nM, the IC50 [8] is reported as 2400 ± 200 nM and the IC50 [9] is reported as 4800 ± 500 nM. The IC50 [10] was 2600 ± 300 nM.
